Measurements published in patent US20080188460A1, “Tricyclic compounds, a process for their preparation and pharmaceutical compositions containing them” (LES LABORATOIRES SERVIER, priority 2007, published 2008).
pIC50: −log10 of the molar value.

Key:
H146 cells = conditions: at 3 μM, 6 hours exposure
Experimental: (§1) This study was carried out on three human tumour cell lines: • 1 small-cell lung carcinoma, H146, • 1 acute myeloid leukaemia, MV4; 11, • 1 leukaemia, RS4; 11.
(§2) The cell lines are cultured in an incubator at 37° C. in the presence of 5% CO2. The H146 and RS4;11 cells are cultured in complete RPMI 1640 medium containing 10% foetal calf serum, 2 mM of glutamine, 50 units/ml of penicillin, 50 μg/ml of streptomycin and 10 mM of Hepes buffer, pH=7.4.
(§3) The cells are distributed onto 6-well plates and exposed to the test compounds for 6 hours. They are then harvested and lysed and the caspase activity is measured in the cell lysates. This enzymatic measurement is carried out by measuring the appearance of a fluorigenic cleavage product (Pharmacia).

MV4;11 cells = conditions: at 0.1 μM, 6 hours exposure
Experimental: as §1, §2, §3

RS4;11 cells = conditions: at 1 μM, 6 hours exposure
Experimental: as §1, §2, §3

H146 = conditions: read-out: IC50 (concentration of compound that inhibits cell viability by 50%); H146, 48 hours exposure
Experimental: (§4) The cytotoxicity studies were carried out on the three tumour lines of Example A. The cells are distributed onto microplates and exposed to the test compounds for 48 hours. The cell viability is then quantified by a colorimetric assay, the Microculture Tetrazolium Assay (Cancer Res., 1987, 47, 939-942).

MV4;11 = conditions: read-out: IC50 (concentration of compound that inhibits cell viability by 50%); MV4;11, 48 hours exposure
Experimental: as §4

RS4;11 = conditions: read-out: IC50 (concentration of compound that inhibits cell viability by 50%); RS4;11, 48 hours exposure
Experimental: as §4

[1] = test system: H146 small-cell lung carcinoma cells; conditions: 100 mg/kg intra-peritoneally every day for 21 days
Experimental: The anti-tumour activity of the compounds of the invention is evaluated in a xenotransplant model of H146 small-cell lung carcinoma cells.
5×10^6 H146 cells are transplanted sub-cutaneously into immunosuppressed mice (NOD SCID strain). […] The tumour mass is measured twice a week from the commencement of treatment.

`CN(C)CC[C@H](CSc1ccccc1)Nc1ccc(S(=O)(=O)NC(=O)c2ccc3c(c2)CC[C@@H]2CN(Cc4ccccc4-c4ccc(Cl)cc4)CCN32)cc1[N+](=O)[O-].Cl.Cl` [Example 20] was tested, and the caspase activity (H146 cells) was 22000 IU, the caspase activity (MV4;11 cells) was 20000 IU and the caspase activity (RS4;11 cells) was 23000 IU. The pIC50 (H146) was 6.52, the pIC50 (MV4;11) was 7.53 and the pIC50 (RS4;11) was 7.78. The “persistence of the effect after the end of treatment” value [1] was “at least 40 days” and the tumour regression [1] was “almost complete tumour regression”.
